According to patent US20250099596A1, “TETRAHYDRONAPHTHALENE COMPOUND, AND PREPARATION METHOD THEREFOR AND USE THEREOF IN MEDICINE” (Jiangsu Hengrui Pharmaceuticals Co., Ltd., priority 2021, published 2025):
Like-named read-outs stand apart in the source and are kept apart here.

What was measured:
MCF7/ERα Y537S cells = experiment: Inhibitory activity on proliferation of ERα mutant-expressing MCF7 cells; type: cell-based; settings: Homo sapiens, 144 h, 6 days incubation, CellTiter-Glo, read-out: IC50 (nM), inhibition of proliferation of ERα mutant-expressing MCF7 cells
Procedure, shortened: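 MCF7 cells stably expressing ERα Y537S (lentiviral) were seeded in 2% FBS medium and exposed for 6 days at 37 °C to 9 concentrations (4-fold dilution from 1000 nM, 0.5% DMSO control). Viability read by CellTiter-Glo luminescence; IC50 calculated from concentration–signal data.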

MCF7 cells = experiment: Inhibitory effects on MCF7 cell proliferation (CellTiter-Glo); type: cell-based; settings: Homo sapiens, 144 h, 6 days incubation, read-out: IC50 (nM), inhibition of MCF7 cell proliferation
Procedure, shortened: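 MCF7 cells seeded at 3,000 cells/well in MEM with 2% FBS, then treated next day with 9 final concentrations (4-fold dilutions from 1000 nM) for 6 days at 37° C; blank control 0.5% DMSO. Viability read by CellTiter-Glo luminescence; IC50 fitted from concentration–signal data.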

[1] = Pharmacokinetic evaluation, C57 mouse test; type: in vivo; settings: C57 mice; for AUC(0-t): read-out: Area under curve AUC0-t; for half-life: read-out: Half-life T1/2 (converted); for Cmax: read-out: Plasma concentration Cmax
Procedure: With C57 mice as test animals, the plasma concentration of the compound of Example 26-1 was determined by LC/MS/MS at different time points after intragastric (i.g.)/intravenous (i.v.) administration to C57 mice. The pharmacokinetic behavior of the compound of the present disclosure in C57 mice was studied and its pharmacokinetic profile was evaluated.
Eighteen female C57 mice were evenly divided into 2 groups and fasted overnight, and the 2 groups were dosed intragastrically and intravenously, respectively. The mice were provided by Zhejiang Vital River Laboratory Animal Technology Co., Ltd.
An appropriate amount of the compound of Example 26-1 was weighed out and mixed with 5% DMSO+5% Tween 80+90% normal saline to make a 0.1 mg/mL colorless clear solution (for the intragastric administration group) and a 0.1 mg/mL colorless clear solution (for the intravenous administration group).
The intragastric administration group: the dose was 2.0 mg/kg, and the volume was 0.2 mL/10 g.
The intravenous administration group: the dose was 1.0 mg/kg, and the volume was 0.1 mL/10 g.
The intragastric administration group: Blood (0.1 mL) was collected into EDTA-K2 anticoagulation tubes before administration and 0.25 h, 0.5 h, 1.0 h, 2.0 h, 4.0 h, 6.0 h, 8.0 h, 11.0 h and 24.0 h after administration and centrifuged at 10,000 rpm for 1 min (4° C.). The plasma was separated within 1 h and stored at −20° C. before analysis. The process from blood collection to centrifugation was performed in an ice bath. Two hours after administration, feeding was resumed.
The intravenous administration group: Blood was collected before administration and 5 min, 15 min, 0.5 h, 1.0 h, 2.0 h, 4.0 h, 8.0 h, 11.0 h and 24 h after administration and processed as in the intragastric administration group.
The plasma concentration of the test compound was determined after administration of different concentrations of the test compound to C57 mice: plasma samples (25 μL) were collected from C57 mice at various time points after administration, proteins were precipitated with 200 μL of acetonitrile, and 50 μL of camptothecin (100 ng/mL) was added. The mixtures were vortexed for 5 min and centrifuged at 4000 rpm for 10 min. […] of supernatant was collected for LC-MS/MS analysis.

[2] = female, mouse, plasma, iv, i.v., 1.0 mg/kg
[3] = female, mouse, plasma, po, i.g., 2.0 mg/kg

IC50 (MCF7/ERα Y537S cells): 1.67 nM
IC50 (MCF7 cells): 0.59 nM
Clearance CL/F ([1]; i.v., 1.0 mg/kg): 15.4 mL/min/kg
AUC(0-t) [1, 2]: 1070 ng·h/mL
half-life [1, 2]: 4 h
Cmax [1, 2]: 1220 ng/mL
Vd/F ([1]; female, mouse, plasma, po, i.g., 2.0 mg/kg, read-out: Apparent distribution volume Vz/F): 28.3 L/kg
AUC(0-t) [1, 3]: 517 ng·h/mL
CL/F ([1]; female, mouse, plasma, po, i.g., 2.0 mg/kg, read-out: Clearance CL/F): 62.1 mL/min/kg
half-life [1, 3]: 5.3 h
Cmax [1, 3]: 59 ng/mL
Compound: CC(C)C[C@H]1CCc2cc(O)ccc2[C@H]1c1ccc(N2CCC(CN3CCN(c4ccc5c(c4)CN([C@H]4CCC(=O)NC4=O)C5=O)CC3)CC2)cc1 [Example 26-1, (S)-3-(5-(4-((1-(4-((1R,2R)-6-Hydroxy-2-isobutyl-1,2,3,4-tetrahydronaphthalen-1-yl)phenyl)piperidin-4-yl)methyl)piperazin-1-yl)-1-oxoisoindolin-2-yl)piperidine-2,6-dione]
